melting point: 275 to 277 °C
Compound: C[C@@H]1CN(Cc2ccc(F)cc2)CCN1C(=O)/C=C/c1ccc(Cl)cc1NC(=O)N1CCNC1=O [Example 11, 2-Oxo-imidazolidine-1-carboxylic acid (5-Chloro-2-[(E)-3-[(R)-4-(4-fluoro-benzyl)-2-methyl-piperazin-1-yl]-3-oxo-propenyl]-phenyl)-amide]

Source: US7645760B2, “1-(4-Benzyl-piperazin-1-yl)-3-phenyl-propenone derivatives” (Novartis AG., priority 2002, dated 2010)
